Where two headings read alike, the source gives them in different places.
What was measured:
[1] = tested on: E. coli UFR32; assay: MIC of compound alone, broth microdilution; assay type: cell-based; conditions: strain UFR32: E. coli, TEM-1, VEB-1, OXA-10
Method in brief: (§1)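 Exponential-phase inoculum, 5×10^5 cfu/mL final, in cation-supplemented MHB; 35° C in air for 16-20 h. MIC: lowest concentration giving no visible growth.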

[2] = tested on: E. cloacae UFR85; assay: MIC of compound alone, broth microdilution; assay type: cell-based; conditions: strain UFR85: E. cloacae, TEM-1, CTX-M-15, AmpC
Method in brief: as §1

[3] = tested on: E. coli UFR41; assay: MIC of compound alone, broth microdilution; assay type: cell-based; conditions: strain UFR41: E. coli, TEM-1, CTX-M-15, CMY-2, OXA-1, NDM-4
Method in brief: as §1

[4] = tested on: E. cloacae UFR70; assay: MIC of compound alone, broth microdilution; assay type: cell-based; conditions: strain UFR70: E. cloacae, TEM-1, CTX-M-15, CMY-2, OXA-1, Porin loss
Method in brief: as §1

[5] = tested on: E. coli UFR61O; assay: MIC of compound alone, broth microdilution; assay type: cell-based; conditions: strain UFR61O: E. coli, TEM-1, KPC-2
Method in brief: as §1

[6] = tested on: E. coli UFR74; assay: MIC of compound alone, broth microdilution; assay type: cell-based; conditions: strain UFR74: E. coli, SHV-1, DHA-1
Method in brief: as §1

[7] = tested on: E. cloacae 260508; assay: MIC of compound alone, broth microdilution; assay type: cell-based; conditions: strain 260508: E. cloacae, TEM-1, CTX-M-15
Method in brief: as §1

[8] = tested on: K. pneumoniae 200047; assay: MIC of compound alone, broth microdilution; assay type: cell-based; conditions: strain 200047: K. pneumoniae, TEM-1, SHV-32, CTX-M-15, OXA-1
Method in brief: as §1

[9] = tested on: K. pneumoniae UFR77; assay: MIC of compound alone, broth microdilution; assay type: cell-based; conditions: strain UFR77: K. pneumoniae, CMY-2
Method in brief: as §1

[10] = tested on: P. aeruginosa CIP107051; assay: MIC of compound alone, broth microdilution; assay type: cell-based; conditions: strain CIP107051: P. aeruginosa, TEM-24
Method in brief: as §1

[11] = tested on: E. coli 131119; assay: MIC of compound alone, broth microdilution; assay type: cell-based; conditions: strain 131119: E. coli, TEM-1, OXA-48
Method in brief: as §1

[12] = tested on: K. pneumoniae 160143; assay: MIC of compound alone, broth microdilution; assay type: cell-based; conditions: strain 160143: K. pneumoniae, TEM-1, SHV-1, CTX-M-15, KPC-2, OXA-1
Method in brief: as §1

[13] = tested on: K. oxytoca UFR21; assay: MIC of compound alone, broth microdilution; assay type: cell-based; conditions: strain UFR21: K. oxytoca, TEM-1, CTX-M-15, OXA-48
Method in brief: as §1

[14] = tested on: E. coli 190317; assay: MIC of compound alone, broth microdilution; assay type: cell-based; conditions: strain 190317: E. coli, TEM-1, SHV-12, CTX-M-15, OXA-1
Method in brief: as §1

[15] = tested on: K. pneumoniae UFR68; assay: MIC of compound alone, broth microdilution; assay type: cell-based; conditions: strain UFR68: K. pneumoniae, TEM-1, SHV-11, CTX-M-15, KPC-3
Method in brief: as §1

[16] = tested on: E. coli UFR18; assay: MIC of compound alone, broth microdilution; assay type: cell-based; conditions: strain UFR18: E. coli, CTX-M-15, OXA-204
Method in brief: as §1

[17] = tested on: E. cloacae UFR51; assay: MIC of compound alone, broth microdilution; assay type: cell-based; conditions: strain UFR51: E. cloacae, SHV-12, IMP-8
Method in brief: as §1

[18] = tested on: E. coli UFR39; assay: MIC of compound alone, broth microdilution; assay type: cell-based
Method in brief: as §1

[19] = target: AmpC (P99) (Enterobacter cloacae, UniProt P05364); assay: biochemical
[20] = target: CTX-M-15 (Escherichia coli, UniProt Q9EXV5)
[21] = tested on: E. coli RGN238; assay: microbe, parasite or virus in culture; assay type: cell-based
Procedure: Log phase bacterial suspensions were adjusted to a final density of 5×10^5 cfu/mL in cation-adjusted Mueller-Hinton broth (Becton-Dickinson) and added to each well (98 μL). Microplates were incubated for 16-20 h at 35° C. in ambient air. The MIC of the compounds was defined as the lowest concentration of said compounds that prevented bacterial growth as read by visual inspection.

[22] = target: TEM-1 (Escherichia coli, UniProt P62593)
[23] = target: KPC-2 (Klebsiella pneumoniae, UniProt Q9F663)
[24] = target: SHV-1 (Klebsiella pneumoniae, UniProt P0AD64)
[25] = target: OXA-1 (Escherichia coli, UniProt P13661)
[26] = target: CMY-37 (Citrobacter freundii, UniProt P05193); conditions: read-out: IC50 β-lactamase CMY-37
[27] = target: OXA-15 (Pseudomonas aeruginosa, UniProt Q51574); assay: biochemical
[28] = Escherichia coli, read-out: MIC compounds of the invention alone
[29] = Enterobacter cloacae, read-out: MIC compounds of the invention alone
[30] = Klebsiella pneumoniae, read-out: MIC compounds of the invention alone

O=C1N2CC(n3cncn3)=CC(C2)N1OS(=O)(=O)[O-].[Na+] (stereo not shown) [Example 5, sodium [7-oxo-3-(1,2,4-triazol-1-yl)-1,6-diazabicyclo[3.2.1]oct-3-en-6-yl]sulfate]
MIC [1, 28]: 2 µg/mL | MIC [2, 29]: 4 µg/mL | MIC [3, 28]: 4 µg/mL | MIC [4, 29]: 2 µg/mL | MIC [5, 28]: 8 µg/mL | MIC [6, 28]: 4 µg/mL | MIC [7, 29]: 4 µg/mL | MIC [8, 30]: 2 µg/mL | MIC [9, 30]: 4 µg/mL | MIC ([10]; Pseudomonas aeruginosa, read-out: MIC compounds of the invention alone): > 32 µg/mL | MIC [11, 28]: 2 µg/mL | MIC [12, 30]: 2 µg/mL | MIC ([13]; Klebsiella oxytoca, read-out: MIC compounds of the invention alone): 4 µg/mL | MIC [14, 28]: 1 µg/mL | MIC [15, 30]: 4 µg/mL | MIC [16, 28]: 2 µg/mL | MIC [17, 29]: 4 µg/mL | MIC ([18]; Escherichia coli, UFR39, read-out: MIC compounds of the invention alone): 2 µg/mL | IC50 [19]: 16 nM | IC50 [20]: 0.66 nM | MIC ([21]; Escherichia coli, RGN238, read-out: MIC compounds of the invention alone): 2 µg/mL | IC50 [22]: 0.8 nM | IC50 [23]: 3 nM | IC50 [24]: 4.4 nM | IC50 [25]: 49 nM | IC50 [26]: 36 nM | IC50 [27]: 27 nM

O=C1N2CC(n3ccnn3)=CC(C2)N1OS(=O)(=O)[O-].[Na+] (stereo not shown) [Example 2, sodium [7-oxo-3-(triazol-1-yl)-1,6-diazabicyclo[3.2.1]oct-3-en-6-yl]sulfate]
MIC compounds of the invention alone [1]: 1 µg/mL | MIC compounds of the invention alone [2]: 1 µg/mL | MIC compounds of the invention alone [3]: 2 µg/mL | MIC compounds of the invention alone [4]: 1 µg/mL | MIC compounds of the invention alone [5]: 4 µg/mL | MIC compounds of the invention alone [6]: 2 µg/mL | MIC compounds of the invention alone [7]: 2 µg/mL | MIC compounds of the invention alone [8]: 2 µg/mL | MIC compounds of the invention alone [9]: 2 µg/mL | MIC compounds of the invention alone [10]: >32 µg/mL | MIC compounds of the invention alone [11]: 1 µg/mL | MIC compounds of the invention alone [12]: 2 µg/mL | MIC compounds of the invention alone [13]: 2 µg/mL | MIC compounds of the invention alone [14]: 1 µg/mL | MIC compounds of the invention alone [15]: 4 µg/mL | MIC compounds of the invention alone [16]: 1 µg/mL | MIC compounds of the invention alone [17]: 2 µg/mL | MIC compounds of the invention alone ([18]; strain UFR39: E. coli, CTX-M-15, NDM-1): 1 µg/mL | IC50 ([20]; read-out: IC50 β-lactamase CTX-M-15, class (A), nitrocefin 200 μM, 30-min pre-incubation, enzyme 0.4 nM): 0.67 nM | MIC compounds of the invention alone ([21]; strain RGN238: E. coli, OXA-1): 2 µg/mL | IC50 ([22]; read-out: IC50 β-lactamase TEM-1, class (A), nitrocefin 200 μM, 30-min pre-incubation, enzyme 0.1 nM): 0.56 nM | IC50 ([23]; read-out: IC50 β-lactamase KPC-2, class (A), nitrocefin 200 μM, 30-min pre-incubation, enzyme 1 nM): 4.7 nM | IC50 ([24]; read-out: IC50 β-lactamase SHV-1, class (A), nitrocefin 200 μM, 30-min pre-incubation, enzyme 0.075 nM): 4 nM | IC50 ([25]; read-out: IC50 β-lactamase OXA-1, class (D), nitrocefin 200 μM, 30-min pre-incubation, enzyme 0.2 nM): 58 nM | IC50 ([26]; class (C), nitrocefin 200 μM, 30-min pre-incubation, enzyme 0.2 nM): 31 nM

Reference: patent publication US10722520B2, “Heterocyclic compounds and their use in preventing or treating bacterial infections” (MUTABILIS, priority 2016, dated 2020)
